Measurements as given in patent US9212196B2, “Hypophosphorous acid derivatives having antihyperalgic activity and biological applications thereof” (UNIVERSITE PARIS DESCARTES, priority 2011, dated 2015).
Where a name gives a salt, the structure may show the parent alone.

How the values were obtained:
Assay type in all cases: cell-based
[1] = target: mGlu4 (Homo sapiens (Human), UniProt Q14833); experiment: Agonist activity on mGlu4 in transfected HEK293 cells, intracellular calcium release (Fluo4-AM); conditions: transfected cells, calcium release; read-out: mGlu4 EC50 μM (n)
Source text: (§1) The EC50's are compared to those of L-AP4 (L-2-amino-4-phosphonobutyric acid) used as a reference.
(§2) Metabotropic glutamate receptors were transiently transfected in HEK293 cells by electroporation as described elsewhere (Brabet I. et al., 1998) and plated in 96-well microplates. The high affinity glutamate transporter EAAC1 was co-transfected with the receptor in order to avoid any influence of glutamate released by the cells in the assay medium. In the experiments carried out by the inventors, Group-III mGluRs were co-transfected with a chimeric G-protein which couples the activation of the receptor to the phospholipase-C (PLC) pathway. Thus receptor activation induces production of inositol phosphate (IP) which in turn induces intracellular Ca^2+ release. Receptor activity was then determined by measurement of the IP production or Ca release as already described (Goudet C. et al., PNAS 2004). For intracellular calcium measurements, cells expressing mGluRs were loaded with Ca2+-sensitive fluorescent dye Fluo-4 AM (Invitrogen, Cergy-Pontoise, France) dissolved in Hanks' balanced salt solution (HBSS, Invitrogen, Cergy-Pontoise, France) containing 2.5 mM Probenicid (Sigma-Aldrich Chemie, Saint-Quentin Fallavier, France) for 1 h at 37° C., then washed and incubated with HBSS containing probenecid. A drug plate was prepared with the various concentrations of agonist to be tested and drug solution was added in each well after 20 s of recording. Fluorescence signals (excitation 485 nm, emission 525 nm) were measured by using the fluorescence microplate reader Flexstation III (Molecular Devices, Saint-Grégoire, France) at sampling intervals of 1.5 s for 60 s. All points are realized in triplicate.
(§3) The dose-response curves were fitted using the GraphPad Prism program and the following equation: y=[(ymax−ymin)/(1+(x/EC50)n)]+ymin where EC50 is the concentration of the compound necessary to obtain the half maximal effect and n is the Hill coefficient.

[2] = target: mGlu8 (Homo sapiens (Human), UniProt O00222); experiment: Agonist activity on mGlu8 in transfected HEK293 cells, intracellular calcium release (Fluo4-AM); conditions: for EC50: transfected cells, calcium release, read-out: mGlu8 EC50 μM (n); for mGlu8/4 EC50 ratio: ratio of mGlu8 EC50 to mGlu4 EC50
Source text: as §1, §2, §3

[3] = target: mGlu7 (Homo sapiens (Human), UniProt Q14831); experiment: Agonist activity on mGlu7 in transfected HEK293 cells, intracellular calcium release (Fluo4-AM); conditions: transfected cells, calcium release; read-out: mGlu7 EC50 μM (n)
Source text: as §1, §2, §3

[4] = test system: mGlu7; experiment: as above; conditions: ratio of mGlu7 EC50 to mGlu4 EC50
Source text: as §1, §2, §3

Sequence of mGlu4 (Q14833 33-912): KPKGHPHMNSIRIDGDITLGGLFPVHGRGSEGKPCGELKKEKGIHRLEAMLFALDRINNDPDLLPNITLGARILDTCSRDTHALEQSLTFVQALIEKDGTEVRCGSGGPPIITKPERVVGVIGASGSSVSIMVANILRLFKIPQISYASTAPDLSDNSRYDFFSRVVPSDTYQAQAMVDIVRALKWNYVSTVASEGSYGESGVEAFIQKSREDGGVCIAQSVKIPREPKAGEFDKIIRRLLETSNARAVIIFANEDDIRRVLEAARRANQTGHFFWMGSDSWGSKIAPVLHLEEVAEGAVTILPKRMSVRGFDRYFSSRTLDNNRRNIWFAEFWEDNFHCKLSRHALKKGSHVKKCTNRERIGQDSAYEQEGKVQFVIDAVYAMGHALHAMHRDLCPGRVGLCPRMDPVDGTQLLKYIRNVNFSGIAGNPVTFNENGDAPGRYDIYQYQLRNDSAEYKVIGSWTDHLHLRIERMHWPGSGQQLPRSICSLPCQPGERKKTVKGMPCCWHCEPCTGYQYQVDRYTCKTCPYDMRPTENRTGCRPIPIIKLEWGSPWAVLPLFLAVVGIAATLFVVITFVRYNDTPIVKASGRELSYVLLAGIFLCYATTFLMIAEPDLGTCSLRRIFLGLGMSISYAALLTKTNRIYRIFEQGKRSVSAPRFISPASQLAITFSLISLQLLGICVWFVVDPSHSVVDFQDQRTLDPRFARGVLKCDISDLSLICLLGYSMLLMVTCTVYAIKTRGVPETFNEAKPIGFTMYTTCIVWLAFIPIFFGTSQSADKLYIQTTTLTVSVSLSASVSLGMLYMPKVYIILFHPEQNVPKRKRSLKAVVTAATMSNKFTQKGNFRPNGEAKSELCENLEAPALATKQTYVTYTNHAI
Sequence of mGlu7 (Homo sapiens (Human), UniProt Q14831) (Q14831 35-915): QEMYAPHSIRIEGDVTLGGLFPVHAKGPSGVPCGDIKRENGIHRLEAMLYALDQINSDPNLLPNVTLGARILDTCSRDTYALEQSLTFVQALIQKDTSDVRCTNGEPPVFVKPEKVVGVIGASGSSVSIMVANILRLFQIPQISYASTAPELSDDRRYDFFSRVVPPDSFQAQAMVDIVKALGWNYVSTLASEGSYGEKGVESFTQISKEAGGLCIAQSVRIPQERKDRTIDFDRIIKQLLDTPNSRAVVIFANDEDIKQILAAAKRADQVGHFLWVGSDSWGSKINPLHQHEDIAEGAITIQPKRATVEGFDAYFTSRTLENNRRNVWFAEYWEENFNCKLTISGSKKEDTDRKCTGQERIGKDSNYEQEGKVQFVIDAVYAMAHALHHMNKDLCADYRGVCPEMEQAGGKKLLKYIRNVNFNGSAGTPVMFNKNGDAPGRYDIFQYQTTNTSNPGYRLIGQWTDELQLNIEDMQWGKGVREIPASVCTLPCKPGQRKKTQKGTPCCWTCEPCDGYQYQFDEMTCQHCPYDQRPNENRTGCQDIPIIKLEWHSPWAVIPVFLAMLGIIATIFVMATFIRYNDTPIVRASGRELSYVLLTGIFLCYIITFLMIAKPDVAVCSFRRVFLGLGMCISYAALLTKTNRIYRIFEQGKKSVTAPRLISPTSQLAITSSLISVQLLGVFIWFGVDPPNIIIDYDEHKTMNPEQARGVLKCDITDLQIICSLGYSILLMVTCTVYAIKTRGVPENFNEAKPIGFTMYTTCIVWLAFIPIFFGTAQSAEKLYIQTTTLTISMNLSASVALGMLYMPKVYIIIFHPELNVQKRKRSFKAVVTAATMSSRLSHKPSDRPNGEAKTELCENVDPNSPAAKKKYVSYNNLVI
Sequence of mGlu8 (O00222 34-908): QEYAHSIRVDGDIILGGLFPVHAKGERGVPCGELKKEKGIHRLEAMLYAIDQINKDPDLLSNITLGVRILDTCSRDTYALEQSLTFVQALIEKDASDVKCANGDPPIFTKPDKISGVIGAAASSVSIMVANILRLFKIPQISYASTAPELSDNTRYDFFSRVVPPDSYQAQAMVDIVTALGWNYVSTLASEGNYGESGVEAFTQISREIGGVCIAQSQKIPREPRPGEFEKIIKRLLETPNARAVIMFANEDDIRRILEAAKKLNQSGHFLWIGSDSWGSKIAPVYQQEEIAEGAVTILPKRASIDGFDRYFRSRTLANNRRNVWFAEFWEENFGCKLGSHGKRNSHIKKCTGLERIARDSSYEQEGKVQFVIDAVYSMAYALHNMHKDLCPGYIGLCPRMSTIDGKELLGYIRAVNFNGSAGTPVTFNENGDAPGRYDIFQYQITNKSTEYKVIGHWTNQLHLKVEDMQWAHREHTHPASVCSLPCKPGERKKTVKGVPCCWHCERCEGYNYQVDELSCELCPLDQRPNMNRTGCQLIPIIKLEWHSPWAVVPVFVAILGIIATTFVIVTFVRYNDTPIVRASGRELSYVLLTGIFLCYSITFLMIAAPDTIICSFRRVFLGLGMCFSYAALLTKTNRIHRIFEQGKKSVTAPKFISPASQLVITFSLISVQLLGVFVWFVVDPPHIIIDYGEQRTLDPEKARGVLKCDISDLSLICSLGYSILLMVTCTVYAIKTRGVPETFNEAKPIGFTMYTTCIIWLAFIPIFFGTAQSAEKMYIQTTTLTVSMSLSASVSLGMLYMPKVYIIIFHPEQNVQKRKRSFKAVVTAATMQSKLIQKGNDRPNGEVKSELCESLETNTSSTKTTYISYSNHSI

EC50 [1] [µM] | EC50 [2] [µM] | mGlu8/4 EC50 ratio [2] | EC50 [3] [µM] | mGlu7/4 EC50 ratio [4] | mGlu8/4 EC50 ratio ([2]; Hydrochloride) | SMILES
7.6 ± 2 | 71 ± 25 |  |  |  |  | N[C@@H](CCP(=O)(O)C(O)c1cccc(OCC(=O)O)c1)C(=O)O (mixture of isomers) [Derivative 15, [((3S)-3-Amino-3-carboxy)propyl][(3-(carboxymethoxy)phenyl)hydroxymethyl]phosphinic Acid]
4.9 ± 1 | 36 ± 18 |  |  |  |  | N[C@@H](CCP(=O)(O)C(O)c1cccc(OCC(=O)O)c1)C(=O)O (single isomer, unassigned) [Derivative 16, Hydrochloride]
13 ± 2.9 | 29.3 ± 7.2 |  |  |  |  | N[C@@H](CCP(=O)(O)C(O)c1cccc(OCC(=O)O)c1)C(=O)O (single isomer, unassigned) [Derivative 17, Hydrochloride]
1.67 ± 0.33 | 25 ± 6 | 15 | 60.2 ± 10.6 | 36 |  | CCOc1cc(C(O)P(=O)(O)CC[C@H](N)C(=O)O)ccc1OCC(=O)O (stereo in doubt) [Derivative 19, 2-amino-4-(((4-(carboxymethoxy)-3-ethoxyphenyl)(hydroxy)methyl)(hydroxy)phosphoryl)butanoic acid]
0.06 ± 0.02 | 55.6 ± 12 | 927 | 1.97 ± 0.34 | 33 |  | N[C@@H](CCP(=O)(O)C(O)c1ccc(OCC(=O)O)c(OC(F)(F)F)c1)C(=O)O (stereo in doubt) [Derivative 20, 2-amino-4-(((4-(carboxymethoxy)-3-(trifluoromethoxy)phenyl)(hydroxy)methyl)(hydroxy)phosphoryl)butanoic acid]
0.9 ± 0.06 | 6.86 ± 1.83 | 8 | 35.5 ± 4 | 39 |  | N[C@@H](CCP(=O)(O)C(O)c1ccc(OCC(=O)O)c(C(F)(F)F)c1)C(=O)O (stereo in doubt) [Derivative 21, 2-amino-4-(((4-(carboxymethoxy)-3-(trifluoromethyl)phenyl)(hydroxy)methyl)(hydroxy)phosphoryl)butanoic acid]
1.1 ± 0.4 | 34 ± 19 | 31 | 15 ± 3.6 | 14 |  | N[C@@H](CCP(=O)(O)C(O)c1ccc(OCC(=O)O)c(O)c1)C(=O)O (stereo in doubt) [Derivative 22, 2-amino-4-(((4-(carboxymethoxy)-3-hydroxyphenyl)(hydroxy)methyl)(hydroxy)phosphoryl)butanoic acid]
4 ± 0.6 | 7.4 ± 1.2 | 1.9 | 65 ± 13 | 16 |  | N[C@@H](CCP(=O)(O)C(O)c1ccc(OCC(=O)O)c(C(=O)O)c1)C(=O)O (stereo in doubt) [Derivative 23, 5-(((3-amino-3-carboxypropyl)(hydroxy)phosphoryl)(hydroxy)methyl)-2-(carboxymethoxy)benzoic acid]
0.26 ± 0.07 | 1.59 ± 0.82 | 6.1 | 11.2 ± 3.9 | 43 |  | N[C@@H](CCP(=O)(O)C(O)c1ccc(OCC(=O)O)c([N+](=O)[O-])c1)C(=O)O (stereo in doubt) [Derivative 24, 2-amino-4-(((4-(carboxymethoxy)-3-nitrophenyl)(hydroxy)methyl)(hydroxy)phosphoryl)butanoic acid]
1.1 ± 0.36 | 11.5 | 10.4 | 15.2 ± 3.9 | 1.4 |  | N[C@@H](CCP(=O)(O)C(O)c1ccc(SCC(=O)O)c([N+](=O)[O-])c1)C(=O)O (stereo in doubt) [Derivative 25, 2-amino-4-(((4-(carboxymethylthio)-3-nitrophenyl)(hydroxy)methyl)(hydroxy)phosphoryl)butanoic acid]
0.21 ± 0.04 | 1.23 ± 0.48 | 5.9 | 13 ± 1.1 | 62 |  | N[C@@H](CCP(=O)(O)C(O)c1ccc(SCC(=O)O)cc1)C(=O)O (stereo in doubt) [Derivative 26, 2-amino-4-(((4-(carboxymethylthio)phenyl)(hydroxy)methyl)(hydroxy)phosphoryl)butanoic acid]
0.95 ± 0.16 | 14.3 ± 5.6 | 15 | 103 ± 7 | 109 |  | CC(Oc1ccc(C(O)P(=O)(O)CC[C@H](N)C(=O)O)cc1)C(=O)O (stereo in doubt) [Derivative 29, 2-amino-4-(((4-(1-carboxyethoxy)phenyl)(hydroxy)methyl)(hydroxy)phosphoryl)butanoic acid]
7.41 ± 1.55 | > 300 | >40 |  |  |  | COc1cc(CP(=O)(O)CC[C@H](N)C(=O)O)ccc1OCC(=O)O (stereo in doubt) [Derivative 31, 2-amino-4-((4-(carboxymethoxy)-3-methoxybenzyl)(hydroxy)phosphoryl)butanoic acid]
1.22 ± 0.15 | > 100 | >82 | 16.2 ± 3.5 | 13 |  | N[C@@H](CCP(=O)(O)Cc1ccc(OCC(=O)O)c(OC(F)(F)F)c1)C(=O)O (stereo in doubt) [Derivative 32, 2-amino-4-((4-(carboxymethoxy)-3-(trifluoromethoxy)benzyl)(hydroxy)phosphoryl)butanoic acid]
62.5 ± 20.5 | > 100 | 1.6 | 301 ± 73 | 5 |  | N[C@@H](CCP(=O)(O)Cc1ccc(OCC(=O)O)c(C(F)(F)F)c1)C(=O)O (stereo in doubt) [Derivative 33, 2-amino-4-((4-(carboxymethoxy)-3-(trifluoromethyl)benzyl)(hydroxy)phosphoryl)butanoic acid]
3.09 ± 0.62 | 9.17 ± 2.37 | 3 | 232 ± 85 | 75 |  | COc1cc(CP(=O)(O)CC[C@H](N)C(=O)O)cc(F)c1OCC(=O)O (stereo in doubt) [Derivative 34, 2-amino-4-((4-(carboxymethoxy)-3-fluoro-5-methoxybenzyl)(hydroxy)phosphoryl)butanoic acid]
6.2 ± 0.58 | 38.2 ± 7.1 | 6 | > 300 | >48 |  | COc1cc(CP(=O)(O)CC[C@H](N)C(=O)O)cc(Cl)c1OCC(=O)O (stereo in doubt) [Derivative 35, 2-amino-4-((4-(carboxymethoxy)-3-chloro-5-methoxybenzyl)(hydroxy)phosphoryl)butanoic acid]
0.08 ± 0.02 | 10.3 ± 1.3 | 129 | 3.5 ± 1.3 | 44 |  | COc1cc(C(O)P(=O)(O)CC[C@H](N)C(=O)O)cc(F)c1OCC(=O)O (some centres unmarked) [Derivative 6]
0.13 ± 0.02 | 44 ± 7 | 341 | 11.4 ± 0.1 | 88 |  | COc1cc(C(O)P(=O)(O)CC[C@H](N)C(=O)O)cc(Cl)c1OCC(=O)O (some centres unmarked) [Derivative 7]
0.15 ± 0.03 | 28 ± 4 | 193 | 6.6 ± 1.5 | 44 |  | COc1cc(C(O)P(=O)(O)CC[C@H](N)C(=O)O)cc(I)c1OCC(=O)O (some centres unmarked) [Derivative 8]
 |  | 9.4 |  |  |  | N[C@@H](CCP(=O)(O)C(O)c1cccc(OCC(=O)O)c1)C(=O)O (stereo partly drawn) [Derivative 15, [((3S)-3-Amino-3-carboxy)propyl][(3-(carboxymethoxy)phenyl)hydroxymethyl]phosphinic Acid]
 |  |  |  |  | 7.4 | N[C@@H](CCP(=O)(O)C(O)c1cccc(OCC(=O)O)c1)C(=O)O (stereo partly drawn) [Derivative 16, [((3S)-3-Ammonium-3-carboxy)propyl][(3-(carboxymethoxy)phenyl)hydroxymethyl]phosphinic Acid Hydrochloride]
 |  |  |  |  | 2.3 | N[C@@H](CCP(=O)(O)C(O)c1cccc(OCC(=O)O)c1)C(=O)O (stereo partly drawn) [Derivative 17, [((3S)-3-Ammonium-3-carboxy)propyl][(3-(carboxymethoxy)phenyl)hydroxymethyl]phosphinic Acid Hydrochloride]
2.5 ± 1.1 | 14.1 ± 7.3 | 6 |  |  |  | N[C@@H](CCP(=O)(O)C(O)c1ccc(OCC(=O)O)c(OCC(=O)O)c1)C(=O)O (stereo partly drawn) [Derivative 18, [((3S)-3-Amino-3-carboxy)propyl][(3,4-di(carboxymethoxy)phenyl)hydroxymethyl]phosphinic Acid]
